Where only a bound is given, the exact number is not on record here.

T1 sequence (P31749 whole entry E17K): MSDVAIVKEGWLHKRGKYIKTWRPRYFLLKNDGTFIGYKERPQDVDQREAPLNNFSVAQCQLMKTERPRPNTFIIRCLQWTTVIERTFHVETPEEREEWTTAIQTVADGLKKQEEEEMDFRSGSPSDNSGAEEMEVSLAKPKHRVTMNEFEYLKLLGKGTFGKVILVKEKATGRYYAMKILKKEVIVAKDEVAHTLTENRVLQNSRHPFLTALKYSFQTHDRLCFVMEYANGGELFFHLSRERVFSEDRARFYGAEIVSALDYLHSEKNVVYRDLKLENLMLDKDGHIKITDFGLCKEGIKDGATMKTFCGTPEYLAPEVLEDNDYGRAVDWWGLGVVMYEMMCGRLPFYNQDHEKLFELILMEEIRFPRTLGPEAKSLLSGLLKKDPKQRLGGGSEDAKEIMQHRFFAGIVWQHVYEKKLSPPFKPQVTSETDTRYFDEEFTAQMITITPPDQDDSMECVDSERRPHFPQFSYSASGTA

The first test addresses T1, full length AKT E17K (Homo sapiens, UniProt P31749, E17K).
T1 construct: host or cells: HEK-293 (ATCC CRL-1573)
Kind of test: NanoBRET Target Engagement (TE) Intracellular Kinase Assay.
Conditions: not given
The format is cell-based. A digest of the protocol:
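Live-cell BRET assay: cells expressing NanoLuc-fused full-length AKT E17K incubated 2 h with tracer at target-optimized concentration plus compound. BRET read at 450 nm donor/600 nm acceptor with extracellular NanoLuc inhibitor. EC50 from sigmoidal variable-slope fit of tracer displacement.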
`Nc1ncccc1-c1nc2ccc(-c3ccccc3)nc2n1-c1ccc(CN2CCC(Nc3c(OC4CCCC4)c(=S)c3=S)CC2)cc1` [Example 16, 3-((1-(4-(2-(2-Aminopyridin-3-yl)-5-phenyl-3H-imidazo[4,5-b]pyridin-3-yl)benzyl)piperidin-4-yl)amino)-4-(cyclopentyloxy)cyclobut-3-ene-1,2-dithione] gave an EC50 of 60 to 600 nM. `COc1c(N2C[C@H]3CN(Cc4ccc(-n5c(-c6cccnc6N)nc6ccc(-c7ccccc7)nc65)cc4)C[C@H]3C2)c(=O)c1=O` [Example 86, 3-((3aR,6aS)-5-(4-(2-(2-aminopyridin-3-yl)-5-phenyl-3H-imidazo[4,5-b]pyridin-3-yl)benzyl)hexahydropyrrolo[3,4-c]pyrrol-2(1H)-yl)-4-methoxycyclobut-3-ene-1,2-dione] came in with an EC50 of 15 to 60 nM.

As for `COc1c(N2CCN(Cc3ccc(-n4c(-c5cccnc5N)nc5ccc(-c6ccccc6)nc54)cc3)C[C@@H]2C)c(=O)c1=O` [Example 36, (S)-3-(4-(4-(2-(2-Aminopyridin-3-yl)-5-phenyl-3H-imidazo[4,5-b]pyridin-3-yl)benzyl)-2-methylpiperazin-1-yl)-4-methoxycyclobut-3-ene-1,2-dione], the EC50 lay within 15 to 60 nM. Compound `Nc1ncccc1-c1nc2ccc(-c3ccccc3)nc2n1-c1ccc(CN2CCC(Nc3c(OC4CCCC4)c(=S)c3=O)CC2)cc1` [Example 15, 2-((1-(4-(2-(2-Aminopyridin-3-yl)-5-phenyl-3H-imidazo[4,5-b]pyridin-3-yl)benzyl)piperidin-4-yl)amino)-3-(cyclopentyloxy)-4-thioxocyclobut-2-en-1-one] yielded a 50% effective concentration (EC50) of 60 to 600 nM. On the same count and under the same terms, in the case of `COc1c(N(C)C2CCN(Cc3ccc(-n4c(-c5cccnc5N)nc5cc(-c6ccccc6)cnc54)cc3)CC2)c(=O)c1=O` [Example 32, 3-((1-(4-(2-(2-Aminopyridin-3-yl)-6-phenyl-3H-imidazo[4,5-b]pyridin-3-yl)benzyl)piperidin-4-yl)(methyl)amino)-4-methoxycyclobut-3-ene-1,2-dione] it was 60 to 600 nM; in that of `Nc1ncccc1-c1nc2ccc(-c3ccccc3)nc2n1-c1ccc(CN2CCC(N3CCCOc4c3c(=O)c4=O)C2)cc1` (stereo not shown) [Example 82, 6-(1-(4-(2-(2-aminopyridin-3-yl)-5-phenyl-3H-imidazo[4,5-b]pyridin-3-yl)benzyl)pyrrolidin-3-yl)-2-oxa-6-azabicyclo[5.2.0]non-1(7)-ene-8,9-dione], 60 to 600 nM; in that of `COc1c(Nc2cccc(C(=O)NCc3ccc(-n4c(-c5cccnc5N)nc5ccc(-c6ccccc6)nc54)cc3)c2)c(=O)c1=O` [Example 33, N-(4-(2-(2-aminopyridin-3-yl)-5-phenyl-3H-imidazo[4,5-b]pyridin-3-yl)benzyl)-3-((2-methoxy-3,4-dioxocyclobut-1-en-1-yl)amino)benzamide], 60 to 600 nM. Still for that read-out and setting: with `CCOc1c(NC2CCN(Cc3ccc(-n4c(-c5cccnc5N)nc5ccc(-c6ccccc6)nc54)cc3)CC2)c(=O)c1=O` [Example 12, 3-((1-(4-(2-(2-Aminopyridin-3-yl)-5-phenyl-3H-imidazo[4,5-b]pyridin-3-yl)benzyl)piperidin-4-yl)amino)-4-ethoxycyclobut-3-ene-1,2-dione] the figure was 15 to 60 nM; with `CC(C)Oc1c(NC2CCN(Cc3ccc(-n4c(-c5cccnc5N)nc5ccc(-c6ccccc6)nc54)cc3)CC2)c(=O)c1=O` [Example 11, 3-((1-(4-(2-(2-aminopyridin-3-yl)-5-phenyl-3H-imidazo[4,5-b]pyridin-3-yl)benzyl)piperidin-4-yl)amino)-4-isopropoxycyclobut-3-ene-1,2-dione], 15 to 60 nM. `COc1c(N2CCCC3(CCN(Cc4ccc(-n5c(-c6cccnc6N)nc6ccc(-c7ccccc7)nc65)cc4)CC3)C2)c(=O)c1=O` [Example 31, 3-(9-(4-(2-(2-Aminopyridin-3-yl)-5-phenyl-3H-imidazo[4,5-b]pyridin-3-yl)benzyl)-2,9-diazaspiro[5.5]undecan-2-yl)-4-methoxycyclobut-3-ene-1,2-dione] showed an EC50 of 15 to 60 nM. Still for that read-out and setting: with `COc1c(N2[C@H](C)CN(Cc3ccc(-n4c(-c5cccnc5N)nc5ccc(-c6ccccc6)nc54)cc3)C[C@@H]2C)c(=O)c1=O` [Example 68, 3-((2S,6R)-4-(4-(2-(2-aminopyridin-3-yl)-5-phenyl-3H-imidazo[4,5-b]pyridin-3-yl)benzyl)-2,6-dimethylpiperazin-1-yl)-4-methoxycyclobut-3-ene-1,2-dione] the figure was 60 to 600 nM; with `COc1c(N2CCN(Cc3ccc(-n4c(-c5cccnc5N)nc5cc(-c6ccccc6)cnc54)cc3)CC2)c(=O)c1=O` [Example 9, 3-(4-(4-(2-(2-Aminopyridin-3-yl)-6-phenyl-3H-imidazo[4,5-b]pyridin-3-yl)benzyl)piperazin-1-yl)-4-methoxycyclobut-3-ene-1,2-dione], 60 to 600 nM; with `CCOc1c(N2CCC3(CC2)CN(Cc2ccc(-n4c(-c5cccnc5N)nc5ccc(-c6ccccc6)nc54)cc2)C3)c(=O)c1=O` [Example 59, 3-(2-(4-(2-(2-Aminopyridin-3-yl)-5-phenyl-3H-imidazo[4,5-b]pyridin-3-yl)benzyl)-2,7-diazaspiro[3.5]nonan-7-yl)-4-ethoxycyclobut-3-ene-1,2-dione], 15 to 60 nM.

Consider `COc1c(NC2CCN(C(=O)c3ccc(-n4c(-c5cccnc5N)nc5ccc(-c6ccccc6)nc54)cc3)CC2)c(=O)c1=O` [Example 28, 3-((1-(4-(2-(2-Aminopyridin-3-yl)-5-phenyl-3H-imidazo[4,5-b]pyridin-3-yl)benzoyl)piperidin-4-yl)amino)-4-methoxycyclobut-3-ene-1,2-dione], for which the EC50 is > 600 nM. The same measure, in the same setting: in the case of `COc1c(N2CCN(Cc3ccc(-n4c(-c5cccnc5N)nc5ccc(-c6ccccc6)nc54)cc3)CC23CC3)c(=O)c1=O` [Example 37, 3-(7-(4-(2-(2-Aminopyridin-3-yl)-5-phenyl-3H-imidazo[4,5-b]pyridin-3-yl)benzyl)-4,7-diazaspiro[2.5]octan-4-yl)-4-methoxycyclobut-3-ene-1,2-dione] it was 15 to 60 nM. Still for that read-out and setting: with `Nc1ncccc1-c1nc2ccc(-c3ccccc3)nc2n1-c1ccc(CN2CCN(c3c(O)c(=O)c3=O)CC2)cc1` [Example 22, 3-(4-(4-(2-(2-Aminopyridin-3-yl)-5-phenyl-3H-imidazo[4,5-b]pyridin-3-yl)benzyl)piperazin-1-yl)-4-hydroxycyclobut-3-ene-1,2-dione] the figure was > 600 nM.

The same test, now with this note: read-out: NanoBRET AKT1E17K EC50; HEK-293 cells transfected with NanoLuc-AKT E17K; competitive displacement of NanoBRET tracer; 2 hr equilibration; 10-point 3-fold dilution.
In the case of `COc1c(N2C[C@@H]3C[C@H]2CN3Cc2ccc(-n3c(-c4cccnc4N)nc4ccc(-c5ccccc5)nc43)cc2)c(=O)c1=O` [Example 75, 3-((1S,4S)-5-(4-(2-(2-aminopyridin-3-yl)-5-phenyl-3H-imidazo[4,5-b]pyridin-3-yl)benzyl)-2,5-diazabicyclo[2.2.1]heptan-2-y1)-4-methoxycyclobut-3-ene-1,2-dione], the EC50 was < 15 nM. Consider `CCN(c1c(SC)c(=O)c1=O)C1CCN(Cc2ccc(-n3c(-c4cccnc4N)nc4ccc(-c5ccccc5)nc43)cc2)CC1` [Example 92, 3-((1-(4-(2-(2-aminopyridin-3-yl)-5-phenyl-3H-imidazo[4,5-b]pyridin-3-yl)benzyl)piperidin-4-yl)(ethyl)amino)-4-(methylthio)cyclobut-3-ene-1,2-dione], for which the EC50 was < 15 nM. Still for that read-out and setting: with `CCSc1c(NC2CCN(Cc3ccc(-n4c(-c5cccnc5N)nc5ccc(-c6ccccc6)nc54)cc3)CC2)c(=O)c1=O` [Example 39, 3-((1-(4-(2-(2-Aminopyridin-3-yl)-5-phenyl-3H-imidazo[4,5-b]pyridin-3-yl)benzyl)piperidin-4-yl)amino)-4-(ethylthio)cyclobut-3-ene-1,2-dione] the figure was < 15 nM; with `COc1c(N2C[C@H]3C[C@@H]2CN3Cc2ccc(-n3c(-c4cccnc4N)nc4ccc(-c5ccccc5)nc43)cc2)c(=O)c1=O` [Example 76, 3-((1R,4R)-5-(4-(2-(2-aminopyridin-3-yl)-5-phenyl-3H-imidazo[4,5-b]pyridin-3-yl)benzyl)-2,5-diazabicyclo[2.2.1]heptan-2-yl)-4-methoxycyclobut-3-ene-1,2-dione], < 15 nM. Same read-out and setting: with `COc1c(N[C@@H]2CCCN(Cc3ccc(-n4c(-c5cccnc5N)nc5ccc(-c6ccccc6)nc54)cc3)C2)c(=O)c1=O` [Example 34, (R)-3-((1-(4-(2-(2-aminopyridin-3-yl)-5-phenyl-3H-imidazo[4,5-b]pyridin-3-yl)benzyl)piperidin-3-yl)amino)-4-methoxycyclobut-3-ene-1,2-dione] the figure was < 15 nM; with `[2H]C([2H])([2H])Oc1c(NC2CCN(Cc3ccc(-n4c(-c5cccnc5N)nc5ccc(-c6ccccc6)nc54)cc3)CC2)c(=O)c1=O` [Example 13, 3-((1-(4-(2-(2-Aminopyridin-3-yl)-5-phenyl-3H-imidazo[4,5-b]pyridin-3-yl)benzyl)piperidin-4-yl)amino)-4-(methoxy-d3)cyclobut-3-ene-1,2-dione], < 15 nM; with `COc1c(NC2CCN(Cc3ccc(-n4c(-c5cccnc5N)nc5ccc(-c6cccc(NC(C)=O)c6)nc54)cc3)CC2)c(=O)c1=O` [Example 8, N-(3-(2-(2-Aminopyridin-3-yl)-3-(4-((4-((2-methoxy-3,4-dioxocyclobut-1-en-1-yl)amino)piperidin-1-yl)methyl)phenyl)-3H-imidazo[4,5-b]pyridin-5-yl)phenyl)acetamide], < 15 nM. The same measure, in the same setting: in the case of `COc1c(NC2CN(Cc3ccc(-n4c(-c5cccnc5N)nc5ccc(-c6ccccc6)nc54)cc3)C2)c(=O)c1=O` [Example 51, 3-((1-(4-(2-(2-Aminopyridin-3-yl)-5-phenyl-3H-imidazo[4,5-b]pyridin-3-yl)benzyl)azetidin-3-yl)amino)-4-methoxycyclobut-3-ene-1,2-dione] it was < 15 nM. As for `COc1c(N(C)C2CCN(C(C)c3ccc(-n4c(-c5cccnc5N)nc5ccc(-c6ccccc6)nc54)cc3)CC2)c(=O)c1=O` (stereo not shown) [Example 90, 3-((1-(1-(4-(2-(2-aminopyridin-3-yl)-5-phenyl-3H-imidazo[4,5-b]pyridin-3-yl)phenyl)ethyl)piperidin-4-yl)(methyl)amino)-4-methoxycyclobut-3-ene-1,2-dione], the EC50 was < 15 nM.

Values taken from patent US20260365646A1, “AKT1 MODULATORS” (Alterome Therapeutics, Inc., priority 2022, published 2026).
